Results taken from ChEMBL document CHEMBL3877333, “Bicyclic Ketone Sulfonamide Compounds” (ACS Med Chem Lett, 2017).

Target: Sodium channel protein type 9 subunit alpha (Homo sapiens, UniProt Q15858)
Test: Inhibition of human Nav1.7 expressed in HEK293 cells at holding potential yielding 20 to 50% inactivation measured after 3 mins by patchXpress electrophysiology assay
Format: cell-based

Sequence of Sodium channel protein type 9 subunit alpha (Q15858 whole entry): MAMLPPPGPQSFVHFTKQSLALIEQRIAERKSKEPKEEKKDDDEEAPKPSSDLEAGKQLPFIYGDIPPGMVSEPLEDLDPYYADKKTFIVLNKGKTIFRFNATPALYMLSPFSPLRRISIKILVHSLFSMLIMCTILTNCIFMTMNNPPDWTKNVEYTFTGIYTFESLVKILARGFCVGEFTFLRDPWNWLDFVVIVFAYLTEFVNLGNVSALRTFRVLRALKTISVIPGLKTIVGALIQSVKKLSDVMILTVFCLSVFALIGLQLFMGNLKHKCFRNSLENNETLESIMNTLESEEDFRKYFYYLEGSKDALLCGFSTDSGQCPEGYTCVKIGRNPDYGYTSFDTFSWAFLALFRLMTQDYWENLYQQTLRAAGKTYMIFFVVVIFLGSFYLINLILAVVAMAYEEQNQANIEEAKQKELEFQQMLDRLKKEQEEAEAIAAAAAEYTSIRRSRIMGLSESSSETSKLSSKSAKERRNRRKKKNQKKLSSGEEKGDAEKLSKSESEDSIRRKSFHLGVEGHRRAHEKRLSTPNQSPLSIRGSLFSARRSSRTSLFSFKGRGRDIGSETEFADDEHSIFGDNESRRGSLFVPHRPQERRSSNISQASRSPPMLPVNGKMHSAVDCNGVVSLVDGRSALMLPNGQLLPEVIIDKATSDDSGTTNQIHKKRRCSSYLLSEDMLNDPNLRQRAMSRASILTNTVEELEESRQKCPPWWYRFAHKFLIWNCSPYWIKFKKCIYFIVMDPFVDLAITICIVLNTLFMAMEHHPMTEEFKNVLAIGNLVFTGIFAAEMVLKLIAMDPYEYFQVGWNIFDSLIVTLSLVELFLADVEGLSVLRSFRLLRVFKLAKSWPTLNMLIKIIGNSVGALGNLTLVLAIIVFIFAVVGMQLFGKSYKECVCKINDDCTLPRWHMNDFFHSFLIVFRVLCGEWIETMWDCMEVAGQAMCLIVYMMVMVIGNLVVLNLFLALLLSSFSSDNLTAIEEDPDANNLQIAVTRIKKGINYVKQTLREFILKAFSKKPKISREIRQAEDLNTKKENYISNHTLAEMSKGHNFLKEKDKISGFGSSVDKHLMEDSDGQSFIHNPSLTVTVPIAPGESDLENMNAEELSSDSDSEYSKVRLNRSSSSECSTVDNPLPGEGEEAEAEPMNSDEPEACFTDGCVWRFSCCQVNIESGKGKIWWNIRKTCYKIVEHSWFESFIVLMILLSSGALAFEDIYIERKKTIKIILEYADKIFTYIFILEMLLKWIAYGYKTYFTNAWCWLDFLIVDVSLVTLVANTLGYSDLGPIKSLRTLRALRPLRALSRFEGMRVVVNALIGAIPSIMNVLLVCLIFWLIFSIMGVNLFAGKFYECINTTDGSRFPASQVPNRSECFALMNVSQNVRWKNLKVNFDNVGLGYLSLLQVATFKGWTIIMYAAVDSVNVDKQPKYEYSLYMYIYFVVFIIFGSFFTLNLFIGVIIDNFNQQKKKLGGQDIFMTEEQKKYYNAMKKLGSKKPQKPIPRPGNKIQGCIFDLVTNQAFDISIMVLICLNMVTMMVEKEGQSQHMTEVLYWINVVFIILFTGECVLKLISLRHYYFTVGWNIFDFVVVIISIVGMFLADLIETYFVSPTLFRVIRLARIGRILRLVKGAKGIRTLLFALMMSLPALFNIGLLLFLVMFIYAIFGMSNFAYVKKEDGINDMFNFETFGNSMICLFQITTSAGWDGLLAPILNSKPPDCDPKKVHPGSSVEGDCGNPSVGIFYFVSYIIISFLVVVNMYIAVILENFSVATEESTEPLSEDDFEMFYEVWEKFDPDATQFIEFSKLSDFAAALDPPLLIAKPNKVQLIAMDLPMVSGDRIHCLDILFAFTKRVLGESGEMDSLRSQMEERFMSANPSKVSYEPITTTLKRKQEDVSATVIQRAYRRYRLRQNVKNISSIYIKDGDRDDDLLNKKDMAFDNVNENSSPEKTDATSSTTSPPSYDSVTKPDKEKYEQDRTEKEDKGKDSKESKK

Row | Structure (SMILES) | IC50 [nM]
1 | COc1cc(-c2cc(OC)c(-n3c4c(ccc3=O)CN(S(=O)(=O)Nc3ccon3)CC4)cc2F)ccc1C | 12.3
2 | COc1cc(-c2ccc(F)c(F)c2)c(F)cc1-n1c2c(ccc1=O)CN(S(=O)(=O)Nc1ccon1)CC2 | 6.7
3 | COc1cc(-c2ccc(F)c(F)c2)c(F)cc1-n1c2c(ccc1=O)CN(S(=O)(=O)Nc1cccnn1)CC2 | 23.7
4 | COc1cc(-c2ccc(Cl)c(C)c2)c(F)cc1-n1c2c(ccc1=O)CN(S(=O)(=O)Nc1cccnn1)CC2 | 19.6

Stronger by IC50, values ahead:

Row | IC50 [nM] | Structure (SMILES)
5 | 4.3 | COc1cc(-c2cc(F)cc(Cl)c2)c(F)cc1-n1c2c(ccc1=O)CN(S(=O)(=O)Nc1ccon1)CC2
6 | 5.5 | COc1cc(-c2cccc(OC(F)F)c2)c(F)cc1-n1c2c(ccc1=O)CN(S(=O)(=O)Nc1ccon1)CC2
7 | 4.7 | COc1cc(-c2cccc(C(F)(F)F)c2)c(F)cc1-n1c2c(ccc1=O)CN(S(=O)(=O)Nc1ccon1)CC2
